We go through one compound from patent US20070066616A1, “Inhibitors for extracellular signal-regulated kinase docking domains and uses therefor” (priority 2005, published 2007).

The subject of the test is ERK1/2 phosphorylation by MEK1/2. The experiment in a line: ERK1/2 phosphorylation on activating sites (upstream MEK1/2), immunoblot. Type of test: cell-based, human. Particulars: HeLa cells, EGF stimulated. Here is the method: HeLa cells were pretreated with or without 100 μM of test compounds for 5 min (FIGS. 5A-5B) or 15 min (FIGS. 5C-5E) prior to the addition of epidermal growth factor (EGF or E) to stimulate the ERK pathway or anisomycin (A) to stimulate p38 MAP kinase. In FIGS. 5A-5B HeLa cells were treated with EGF for 5 minutes. […] The far left lane is the control (−) with no EGF. […] The control (C) is EGF only treatment. In FIG. 5B cells pretreated with increasing concentrations of compound 76 were stimulated with EGF. ELK-1 phosphorylation on Ser383 (pELK-1) was measured by immunoblotting. The expression of dually phosphorylated ERK1/2 (ppERK1/2) and a-tubulin as a loading control are also shown. […] The pElk-1 phosphorylation in the presence of the test compounds was compared to the EGF only treatment, which was set at 100%. […] The pRsk-1 phosphorylation in the presence of the test compounds was compared to the EGF only treatment, which was set at 100%. […] The pATF2 phosphorylation in the presence of the test compounds was compared to the anisomycin (A) only treatment, which was set at 100%. The data were reproduced in at least 3 independent experiments.
Prior to harvesting, cells were pre-incubated with the test compounds for 15-20 minutes and then stimulated with EGF or anisomycin to activate the ERK or p38 MAP kinase pathways, respectively. […]
For orientation: A western blot detects proteins with antibodies after separation by electrophoresis.

Take `CCOc1ccc(C=C2SC(=O)N(CCN)C2=O)cc1` [Compound 76]: the “effect on ERK1/2 phosphorylation on activating sites” value is reported as “largely unaffected”.
